# From article PMC10643470, “Knockout or inhibition of USP30 protects dopaminergic neurons in a Parkinson’s disease mouse model” (Nature Communications, 2023)
# “And” between values parts separate entries of the source, which are not always exact repeats. Equal entries are not always repeated.
# Assays:
# [1] = system: AAV-A53T-SNCA PD mouse model; test: Iba1/GFAP immunostaining in SNpc, AAV-A53T-SNCA mouse model (compound study); format: in vivo; parameters: key to Figure S7a immunostaining, Left / Figure S7a immunostaining, Right: % stained area = stained area / region area × 100
# Source text: (§1) For the compound study, the fixed, cryoprotected and frozen midbrain samples were sectioned as coronal sections at 100 µm intervals through SNpc and ventral tegmental area (VTA) and mounted on glass slides. Sectioning was started at −2.6 mm from bregma and continued to −3.7 mm from bregma in the AP axis (coordinates based on Franklin & Paxinos: The Mouse Brain in Stereotaxic Coordinates). For the immunostaining, the sections were stained with anti-TH following permeabilization. The stained sections were scanned with the Olympus VS120 slide scanner and analyzed with a VIS-Visiopharm Integrator System (Visiopharm, Denmark) by a blinded data analyst. All cells of interest with visible nuclei were labeled manually and counted using an APP (Analysis Protocol Package), scaled by section thickness and sectioning interval to estimate the total cell population in the SNpc. For immunostaining of Ser129 αSyn phosphorylation, TSA amplification was used with primary antibody ab51253 (Abcam). Blinded analysis was used, and positive cells per area were determined. For dual IF IHC of Iba1 (WAKO) and GFAP (ab4674 – Abcam), the stained sections were scanned and analyzed by a blinded data analyst. Analysis determines the percentage of positive staining area [%area = (stained area/region area) * (100)]. To calculate % of stained area, the same threshold value was applied to all sections with the same antibody staining. All pixels above the threshold value were considered positive. All striatal densitometry and neuronal counting data for both KO and inhibitor studies were obtained by an investigator blinded to genotype and treatment.
# UchL3 = UchL3 (Homo sapiens, UniProt P15374); test: DUB/cathepsin selectivity biochemical assay
# UchL3, sequence (P15374 whole entry, species assumed): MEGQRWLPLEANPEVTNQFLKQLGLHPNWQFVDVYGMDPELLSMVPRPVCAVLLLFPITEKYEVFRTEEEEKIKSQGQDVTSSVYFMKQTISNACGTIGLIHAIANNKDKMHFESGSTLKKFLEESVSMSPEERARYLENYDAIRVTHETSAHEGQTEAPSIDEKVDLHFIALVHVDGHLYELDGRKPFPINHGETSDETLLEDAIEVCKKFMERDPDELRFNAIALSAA
# mouse USP30 = biological target: T1, mouse USP30 (Mus musculus, UniProt Q3UN04); test: USP30 biochemical fluorescence polarization assay (mouse); details: read-out: Mouse USP30 FP assay (IC50)
# T1 construct: Mouse USP30(57-517) (Boston Biochem, #E-582M); purchased Boston Biochem E-582M
# T1 sequence (Q3UN04 57-517): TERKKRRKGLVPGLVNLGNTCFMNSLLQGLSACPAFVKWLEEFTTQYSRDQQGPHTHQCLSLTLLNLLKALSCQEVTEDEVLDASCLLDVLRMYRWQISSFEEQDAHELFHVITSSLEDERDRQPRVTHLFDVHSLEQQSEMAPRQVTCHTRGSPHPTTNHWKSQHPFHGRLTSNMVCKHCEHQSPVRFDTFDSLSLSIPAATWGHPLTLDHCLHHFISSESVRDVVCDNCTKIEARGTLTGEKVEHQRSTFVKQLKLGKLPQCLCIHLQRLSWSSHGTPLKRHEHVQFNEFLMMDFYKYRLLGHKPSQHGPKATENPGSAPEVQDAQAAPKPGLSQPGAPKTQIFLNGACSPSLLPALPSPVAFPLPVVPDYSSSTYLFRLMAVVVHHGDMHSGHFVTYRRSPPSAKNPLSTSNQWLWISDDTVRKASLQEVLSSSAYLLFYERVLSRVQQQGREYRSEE
# Procedure: USP30 enzyme was diluted in reaction buffer (40 mM Tris HCl, pH 7.5, 0.005% Tween 20, 0.5 mg/ml BSA, 5 mM BME) to achieve a final concentration of 8 nM for human USP30 and 10 nM for mouse USP30, the compound was added and incubated for 30 min at room temp then reactions initiated by addition of Ub-Lys-TAMRA (final conc of 50 nM). Fluorescence was measured immediately after the addition of substrate and following a 2 h incubation on Pherastar Plus or FSX with λ Excitation 540 nm and λ Emission 590 nm.
# USP14 = USP14 (Homo sapiens, UniProt P54578); test: DUB/cathepsin selectivity biochemical assay
# USP14, sequence (P54578 whole entry, species assumed): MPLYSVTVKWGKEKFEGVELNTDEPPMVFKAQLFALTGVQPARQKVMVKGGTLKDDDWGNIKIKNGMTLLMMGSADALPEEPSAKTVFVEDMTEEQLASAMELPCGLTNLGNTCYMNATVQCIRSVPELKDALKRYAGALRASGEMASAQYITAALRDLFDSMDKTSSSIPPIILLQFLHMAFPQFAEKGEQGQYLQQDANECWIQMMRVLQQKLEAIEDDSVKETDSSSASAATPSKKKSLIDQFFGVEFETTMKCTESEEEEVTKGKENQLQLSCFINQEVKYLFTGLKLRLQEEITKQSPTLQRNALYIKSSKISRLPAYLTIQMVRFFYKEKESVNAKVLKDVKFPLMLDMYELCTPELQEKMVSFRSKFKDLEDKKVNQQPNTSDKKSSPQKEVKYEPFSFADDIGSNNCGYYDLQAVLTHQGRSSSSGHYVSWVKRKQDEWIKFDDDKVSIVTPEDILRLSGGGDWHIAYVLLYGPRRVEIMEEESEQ
# [2] = system: AAV-A53T-SNCA PD mouse model; test: TH+ neuron counting in SNpc, AAV-A53T-SNCA mouse model (compound study); format: in vivo
# Source text: as §1
# USP22 = USP22 (Homo sapiens, UniProt Q9UPT9); test: DUB/cathepsin selectivity biochemical assay
# USP22, sequence (Q9UPT9 whole entry, species assumed): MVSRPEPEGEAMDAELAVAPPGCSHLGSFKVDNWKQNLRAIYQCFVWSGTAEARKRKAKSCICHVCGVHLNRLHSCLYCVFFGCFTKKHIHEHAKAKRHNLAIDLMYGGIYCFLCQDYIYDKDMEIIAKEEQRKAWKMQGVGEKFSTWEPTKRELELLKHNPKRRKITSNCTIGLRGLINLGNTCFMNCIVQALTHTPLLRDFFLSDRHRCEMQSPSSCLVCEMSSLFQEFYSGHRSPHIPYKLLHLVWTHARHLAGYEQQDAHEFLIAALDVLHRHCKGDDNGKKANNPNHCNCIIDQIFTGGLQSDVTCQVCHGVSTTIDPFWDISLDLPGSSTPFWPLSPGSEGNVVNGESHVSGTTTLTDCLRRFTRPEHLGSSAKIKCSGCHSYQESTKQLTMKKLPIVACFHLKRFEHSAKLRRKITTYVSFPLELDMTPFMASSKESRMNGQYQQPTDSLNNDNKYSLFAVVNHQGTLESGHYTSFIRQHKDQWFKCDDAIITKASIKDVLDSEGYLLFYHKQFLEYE
# USP16 = USP16 (Homo sapiens, UniProt Q9Y5T5); test: DUB/cathepsin selectivity biochemical assay
# USP34 CORE = biological target: T2, USP34 CORE (Homo sapiens, UniProt Q70CQ2); test: DUB/cathepsin selectivity biochemical assay
# T2 construct: USP34 CORE
# T2 sequence (Q70CQ2 1894-2239 limits assumed): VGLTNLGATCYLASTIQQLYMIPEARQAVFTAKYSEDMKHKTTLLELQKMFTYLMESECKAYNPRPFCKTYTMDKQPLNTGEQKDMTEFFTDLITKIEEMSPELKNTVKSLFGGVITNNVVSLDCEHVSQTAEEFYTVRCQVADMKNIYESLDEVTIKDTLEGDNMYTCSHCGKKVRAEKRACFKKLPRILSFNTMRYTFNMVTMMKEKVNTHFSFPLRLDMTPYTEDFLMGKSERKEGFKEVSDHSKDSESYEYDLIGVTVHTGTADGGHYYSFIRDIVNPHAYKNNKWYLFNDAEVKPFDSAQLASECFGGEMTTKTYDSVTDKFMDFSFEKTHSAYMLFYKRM
# USP35 = USP35 (Homo sapiens, UniProt Q9P2H5); test: DUB/cathepsin selectivity biochemical assay
# USP35, sequence (Q9P2H5 whole entry, species assumed): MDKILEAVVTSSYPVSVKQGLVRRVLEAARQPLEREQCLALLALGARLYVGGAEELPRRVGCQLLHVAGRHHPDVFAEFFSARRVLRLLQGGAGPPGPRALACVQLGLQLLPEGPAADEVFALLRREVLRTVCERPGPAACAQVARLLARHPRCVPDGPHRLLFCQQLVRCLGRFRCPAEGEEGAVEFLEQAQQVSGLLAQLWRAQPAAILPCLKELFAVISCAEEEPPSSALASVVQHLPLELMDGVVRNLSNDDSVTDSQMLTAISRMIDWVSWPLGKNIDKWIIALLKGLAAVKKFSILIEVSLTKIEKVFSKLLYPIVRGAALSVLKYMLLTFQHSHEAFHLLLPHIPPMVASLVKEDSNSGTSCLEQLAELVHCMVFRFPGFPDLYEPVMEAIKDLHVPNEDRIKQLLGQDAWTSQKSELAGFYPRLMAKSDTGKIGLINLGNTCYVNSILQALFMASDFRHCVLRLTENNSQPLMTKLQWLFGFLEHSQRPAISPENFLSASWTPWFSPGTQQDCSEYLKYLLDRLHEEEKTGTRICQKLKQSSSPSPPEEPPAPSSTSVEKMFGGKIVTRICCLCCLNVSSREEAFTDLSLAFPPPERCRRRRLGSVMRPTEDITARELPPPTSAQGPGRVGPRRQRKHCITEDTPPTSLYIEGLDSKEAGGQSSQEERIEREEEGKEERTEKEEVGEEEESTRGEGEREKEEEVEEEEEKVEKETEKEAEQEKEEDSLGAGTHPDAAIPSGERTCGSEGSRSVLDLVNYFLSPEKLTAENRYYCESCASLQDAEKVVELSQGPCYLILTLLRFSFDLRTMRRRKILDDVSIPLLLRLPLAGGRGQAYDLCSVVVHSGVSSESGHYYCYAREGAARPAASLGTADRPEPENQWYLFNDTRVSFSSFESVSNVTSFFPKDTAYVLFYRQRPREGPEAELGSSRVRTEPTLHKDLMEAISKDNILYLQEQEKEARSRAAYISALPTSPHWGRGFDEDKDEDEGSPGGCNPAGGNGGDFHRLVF
# [3] = system: TOM20-ubiquitylation in alpha-synuclein A53T mutated iPSC-derived dopaminergic neurons; test: TOM20-ubiquitylation in A53T iPSC-derived dopaminergic neurons; format: cell-based, human; details: no exogenous stimuli
# Source text: (§2) Donor-derived DopaNeuron lines were generated from source material provided by the Parkinson’s Progression Markers Initiative (PPMI) through The Michael J. Fox Foundation. Human iPS cells-derived DopaNeurons were purchased from Fujifilm/Cellular Dynamics. Apparently healthy normal (AHN) (catalog # R1088) or alpha-synuclein A53T mutated (A53T) (catalog # R1109) iPSC-derived dopaminergic neurons (dopaneurons) were thawed from liquid nitrogen. 400 000 viable (counted using a cell counter) dopaneurons […] were plated per well into 24 well plates on day 0 in complete maintenance medium (CMM).
# (§3) A half-medium change was performed on the cells on Day 3 with CMM. On Day 5 cells were half-medium changed with complete brainphys medium. […] Cells were given half medium changes with or without compounds (depending on whether treatments with compound had started) every 2-3 days.
# [4] = system: TOM20-ubiquitylation in control (AHN) iPSC-derived dopaminergic neurons; test: TOM20-ubiquitylation in control iPSC-derived dopaminergic neurons; format: cell-based, human; details: no exogenous stimuli
# Source text: as §2, §3
# [5] = Mouse exploratory toxicology; format: in vivo; details: two weeks of dosing, dose levels up to 300 mg/kg/day
# USP48 = USP48 (Homo sapiens, UniProt Q86UV5); test: DUB/cathepsin selectivity biochemical assay
# [6] = In-life whole blood compound levels in the A53T model; format: in vivo, mouse; details: for Blood exposure / Cmax: A53T model; for Blood exposure: 0.5-6 h sampling; for In-life whole blood compound level (Figure 4d): individual animals; for Cmax: mouse, whole blood, seven days before end of study
# Procedure: In-life blood samples were taken at 0.5, 1, 2, 4, 6 h, timed relative to the first daily dose, from n = 3 animals per time point to give a composite profile from animals in each group. The in-life blood samples were collected from the saphenous vein (20 µL), transferred in an Eppendorf tube immediately and mixed with an equal volume (20 µL) of ice-cold Serine esterase inhibitor, trichlorfon (100 µM), the sample was frozen, stored at −80 °C and compound levels analyzed by LC-MS.
# USP1 = USP1 (Homo sapiens, UniProt O94782); test: DUB/cathepsin selectivity biochemical assay
# USP1, sequence (O94782 whole entry, species assumed): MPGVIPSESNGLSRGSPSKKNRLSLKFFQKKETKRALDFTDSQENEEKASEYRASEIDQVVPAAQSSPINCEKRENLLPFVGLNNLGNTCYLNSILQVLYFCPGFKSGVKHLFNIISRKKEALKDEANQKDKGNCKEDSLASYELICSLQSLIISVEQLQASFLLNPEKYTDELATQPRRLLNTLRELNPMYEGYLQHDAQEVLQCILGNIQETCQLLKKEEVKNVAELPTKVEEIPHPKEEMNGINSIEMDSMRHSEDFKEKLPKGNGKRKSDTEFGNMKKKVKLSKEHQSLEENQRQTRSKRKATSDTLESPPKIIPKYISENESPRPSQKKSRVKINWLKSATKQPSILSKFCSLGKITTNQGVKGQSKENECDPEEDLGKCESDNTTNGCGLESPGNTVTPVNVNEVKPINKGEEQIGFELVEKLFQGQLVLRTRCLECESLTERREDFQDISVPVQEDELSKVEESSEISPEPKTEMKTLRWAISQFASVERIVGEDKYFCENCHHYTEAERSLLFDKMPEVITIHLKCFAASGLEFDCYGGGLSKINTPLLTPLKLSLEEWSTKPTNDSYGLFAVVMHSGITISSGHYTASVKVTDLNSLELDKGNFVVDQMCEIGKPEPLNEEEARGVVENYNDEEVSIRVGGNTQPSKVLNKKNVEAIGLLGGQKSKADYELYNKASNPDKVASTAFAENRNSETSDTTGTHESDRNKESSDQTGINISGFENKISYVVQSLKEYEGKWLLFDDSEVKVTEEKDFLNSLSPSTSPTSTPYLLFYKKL
# USP1, sequence (Q8TAF3 whole entry partner, species assumed): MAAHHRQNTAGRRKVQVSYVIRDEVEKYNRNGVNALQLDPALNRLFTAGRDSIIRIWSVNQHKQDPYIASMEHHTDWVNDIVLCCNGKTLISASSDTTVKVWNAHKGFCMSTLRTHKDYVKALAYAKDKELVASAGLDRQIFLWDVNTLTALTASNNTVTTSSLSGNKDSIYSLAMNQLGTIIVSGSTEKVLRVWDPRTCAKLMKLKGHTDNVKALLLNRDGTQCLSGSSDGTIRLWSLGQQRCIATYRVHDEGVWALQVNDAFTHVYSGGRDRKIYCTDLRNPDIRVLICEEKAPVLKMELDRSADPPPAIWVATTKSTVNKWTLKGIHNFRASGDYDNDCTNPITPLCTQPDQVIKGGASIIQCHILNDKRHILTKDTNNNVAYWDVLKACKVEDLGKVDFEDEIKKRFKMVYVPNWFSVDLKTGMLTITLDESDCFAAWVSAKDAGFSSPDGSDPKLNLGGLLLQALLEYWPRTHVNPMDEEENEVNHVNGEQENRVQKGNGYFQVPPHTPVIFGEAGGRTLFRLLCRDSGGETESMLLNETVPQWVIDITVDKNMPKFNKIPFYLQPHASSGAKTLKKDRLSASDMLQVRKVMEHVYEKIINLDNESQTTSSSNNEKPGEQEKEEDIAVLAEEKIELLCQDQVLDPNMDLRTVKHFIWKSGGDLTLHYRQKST
# USP36 CD = biological target: T3, USP36 CD (Homo sapiens, UniProt Q9P275); test: DUB/cathepsin selectivity biochemical assay
# T3 construct: USP36 CD
# T3 sequence (Q9P275 122-423 limits assumed): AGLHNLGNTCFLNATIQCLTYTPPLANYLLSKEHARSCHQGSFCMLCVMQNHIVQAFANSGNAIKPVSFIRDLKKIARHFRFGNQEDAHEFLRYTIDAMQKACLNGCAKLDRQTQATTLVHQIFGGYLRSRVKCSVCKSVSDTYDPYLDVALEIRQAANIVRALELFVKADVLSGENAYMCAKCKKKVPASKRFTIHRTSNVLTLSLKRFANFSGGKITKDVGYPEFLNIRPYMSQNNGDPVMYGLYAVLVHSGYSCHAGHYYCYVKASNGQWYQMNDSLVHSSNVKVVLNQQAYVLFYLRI
# USP7 = USP7 (Homo sapiens, UniProt Q93009); test: DUB/cathepsin selectivity biochemical assay
# USP15 = USP15 (Homo sapiens, UniProt Q9Y4E8); test: DUB/cathepsin selectivity biochemical assay
smiles,measurement,setting,value
C[C@@H]1[C@H]2CCN(C(=O)c3ncc(-c4ccnc(C#N)c4)o3)[C@H]2CN1C#N [MTX115325],Total GFAP stained area,"[1]; 50 mg/kg, SNpc",significantly decreased
same,"Figure S7b immunostaining quantification, Left","[1]; AAV-A53T + MTX115325 (50 mg/kg), Group 5, Left hemisphere, individual animal values (Animal ID in r3)",1.3107 and 1.822 and 1.54 and 1.4872 and 0.5058 and 0.5702 and 1.26 and 0.5434 and 3.27 and 0.3697 and 0.5693 and 0.3721 and 1.3682
same,"Figure S7b immunostaining quantification, Right","[1]; AAV-A53T + MTX115325 (50 mg/kg), Group 5, Right hemisphere, individual animal values (Animal ID in r3)",5.052 and 9.289 and 2.625 and 1.026 and 0.413 and 0.7794 and 1.305 and 0.7197 and 2.306 and 0.4784 and 1.89 and 0.7362 and 2.027
same,"Figure S7a immunostaining, Left","[1]; Group 5: AAV-A53T + MTX115325 (50 mg/kg), Left side, individual animals",7.176 and 11.087 and 12.7517 and 7.21 and 7.515 and 4.054 and 9.929 and 4.978 and 8.49 and 4.199 and 4.24 and 6.399 and 9.051
same,"Figure S7a immunostaining, Right","[1]; Group 5: AAV-A53T + MTX115325 (50 mg/kg), Right side, individual animals",24.0437 and 23.3177 and 16.4732 and 6.609 and 8.915 and 4.627 and 11.7034 and 7.051 and 10.4594 and 5.626 and 7.142 and 6.872 and 11.3579
same,IC50,UchL3,> 300 µM
same,IC50,mouse USP30,0.013 µM
same,IC50,USP14,> 300 µM
same,Percentage of ipsilateral vs contralateral TH+ neurons,"[2]; 50 mg/kg BID oral, 10 weeks, vehicle 61.7%, p 0.029",89.08%
same,Percentage of ipsilateral vs contralateral TH+ neurons in SNpc,"[2]; AAV-A53T-SNCA mice, individual animals",43.6893 and 97.2222 and 27.4336 and 125.243 and 125 and 105.063 and 101.25 and 55.1724 and 95.8333 and 93.9394 and 113.861 and 96.0526 and 68.5315 and 98.8095
same,Beneficial effects at lower doses in a subsequent study,"[2]; lower doses, doses not given, peer review reply",not show beneficial effects
same,IC50,USP22,147 µM
same,IC50,USP16,83.7 µM
same,IC50,USP34 CORE,> 300 µM
same,IC50,USP35,> 300 µM
same,TOM20-ubiquitylation,"[3]; A53T neurons, 7 days at 10 nM, 100 nM or 1 µM",caused the upregulation of TOM20-ubiquitylation
same,TOM20-ubiquitylation,"[3]; A53T αSyn background, 24 h, 1 µM",increased TOM20-ubiquitylation
same,TOM20-ubiquitylation,"[4]; control background, 24 h, 1 µM",increased TOM20-ubiquitylation
same,TOM20-ubiquitylation,"[4]; control neurons, 7 days at 10 nM, 100 nM or 1 µM",caused the upregulation of TOM20-ubiquitylation
same,"Tolerability (clinical observations, pathology)",[5],well tolerated with no adverse clinical observations or pathology findings
same,IC50,USP48,> 300 µM
same,Blood exposure,[6]; 15 mg/kg BID oral,13606 ng·h/mL
same,In-life whole blood compound level (Figure 4d),"[6]; 15mg/kg, 0 hours",0
same,In-life whole blood compound level (Figure 4d),"[6]; 15mg/kg, 0.5 hours",6664.93 and 11816.1
same,In-life whole blood compound level (Figure 4d),"[6]; 15mg/kg, 1 hour",7008.88 and 8260.64
same,In-life whole blood compound level (Figure 4d),"[6]; 15mg/kg, 2 hours",2278.7 and 2189.81
same,In-life whole blood compound level (Figure 4d),"[6]; 15mg/kg, 4 hours",404.48 and 419 and 425.15
same,In-life whole blood compound level (Figure 4d),"[6]; 15mg/kg, 6 hours",92.39 and 277.42
same,Blood exposure,[6]; 50 mg/kg BID oral,42959 ng·h/mL
same,In-life whole blood compound level (Figure 4d),"[6]; 50mg/kg, 0 hours",0
same,In-life whole blood compound level (Figure 4d),"[6]; 50mg/kg, 0.5 hours",12073.7 and 13499.1 and 13769.4
same,In-life whole blood compound level (Figure 4d),"[6]; 50mg/kg, 1 hour",13326.8 and 14323.4 and 17878.5
same,In-life whole blood compound level (Figure 4d),"[6]; 50mg/kg, 2 hours",8220.29 and 5260.76
same,In-life whole blood compound level (Figure 4d),"[6]; 50mg/kg, 4 hours",1244.02 and 1284.38
same,In-life whole blood compound level (Figure 4d),"[6]; 50mg/kg, 6 hours",402.46 and 633.68
same,Cmax,[6]; 15 mg/kg BID oral,7550 ng/mL
same,Cmax,[6]; 50 mg/kg BID oral,16400 ng/mL
same,IC50,USP1,> 300 µM
same,IC50,USP36 CD,157 µM
same,IC50,USP7,> 300 µM
same,IC50,USP15,> 300 µM
